Entries after “also recorded” stand apart in the source; their conditions may differ. Structures can show the parent of a compound that is named as a salt.
Experiment: In vitro dissolution procedure, USP Basket Method (Apparatus I)
Format: physicochemical
Settings: 24 hours; for release of medicament, dependence on amount of high melting glyceride: Example 1, FIG. 1, Compritol 888 15-30%, hydrochloride; for release of medicament, dependence on type of medicament: Example 6, FIG. 6, 20% medicament, Methocel E10 P 3%, polysorbate 80 1%; for release of medicament, dependence on amount of surfactant: Example 7, FIG. 7, polysorbate 80 2.5, 5.0, 10.0%
Description: The dissolution release of the formulations was determined by the USP Basket Method (Apparatus I). By this method, samples are tested in a 40 mesh basket rotating at 100 RPM. Release media were used in a volume of 900 ml per dissolution vessel, maintained at 37° C. Double distilled deionized water was generally used as the dissolution media. Some formulations were also evaluated in simulated gastric fluid (0.1N hydrochloric acid, pH=1.2, no enzyme added) or simulated intestinal fluid (0.05 M phosphate buffer, pH=7.4, no enzyme added). Nine samples of 3.0 ml each were automatically collected at 2, 4, 6, […], 12, 14, 20 and 24 hours. The absorbency of the samples were measured at the peak wavelength in the ultraviolet spectrum with Hewliet Packard model 8453 spectrophotometer. The absorbency values were converted to percentages of added medicament that was released.

Cn1c(=O)c2c(ncn2C)n(C)c1=O [caffeine]
release of medicament, dependence on cellulosic polymer (Example 9, FIG. 9, caffeine 20%, Methocel E10 P, Methocel K100M, Ethocel P20 or no polymer, olive oil): faster when the formulation contains Methocel K100M than Ethocel P20; also recorded: sustained over a 24 hour period

OCCOCCN1CCN(C(c2ccccc2)c2ccc(Cl)cc2)CC1 (stereo not shown) [hydroxyzine hydrochloride]
release of medicament, dependence on amount of high melting glyceride (hydroxyzine HCl 20%, soybean oil): moderately faster as the amount of higher fatty acid ester in the formulation is increased over a small range and then levels off | release of medicament, dependence on amount of high melting glyceride (hydroxyzine HCl 20%, soybean oil, listed as hydroxyzine HCl): consistent sustained release over 24 hours | release of medicament, dependence on type of oil (Example 2, FIG. 2, hydroxyzine HCl 20%, Compritol 888 25%, oil 51%): sustained at the same level over the period | release of medicament, dependence on type of high melting glyceride (Example 3, FIG. 3, hydroxyzine HCl 20%, glyceride 25%, soybean oil): fastest with Precirol AT05 slowest with Compritol 888/WL 2155, and intermediate with Compritol 888 | release of medicament, dependence on type of cellulosic polymer (Example 4, FIG. 4, hydroxyzine HCl 20%, polymer 3% (Methocel E10 P, K15M, A4M, Ethocel P20)): released considerably faster from a formulation of Methocel K15M than Ethocel P20 | release of medicament, dependence on type of medicament (Compritol 888 25%, soybean oil): released faster than niacin or caffeine

COCCc1ccc(OCC(O)CNC(C)C)cc1 (stereo not shown) [metoprolol tartrate]
release of medicament, dependence on type of medicament (Compritol 888 25%, soybean oil): released faster than niacin or caffeine | release of medicament, low hydroxypropyl ether celluloses (Example 11, FIG. 11, metoprolol tartrate 20%, LH 11, LH 22 or LH 30 3%, olive oil): sustained over a 24 hour period; also recorded: essentially the same for each cellulosic polymer of the formulation | release of medicament, dependence on amount of Compritol 888 (Example 12, FIG. 12, metoprolol tartrate 20%, Compritol 888 15-35%, olive oil): sustained over 24 hours; also recorded: higher at the higher amounts of compritol

O=C(O)c1cccnc1 [niacin]
release of medicament, dependence on amount of surfactant (niacin 20%, olive oil): faster the higher the level of the surfactant above a level of about 5.0% of the total amount of the formulation | release of medicament, dependence on amount of surfactant (niacin 20%, olive oil, listed as Niacin): sustained over 24 hours | release of medicament, with or without cellulosic polymer (Example 8, FIG. 8, niacin 20%, Methocel E10 P 3% or none, olive oil): released faster from a formulation containing Methocel E10P than from a formulation devoid of the cellulosic polymer
